In patent US20200085784A1, “METHODS TO TREAT FIBROSIS, NASH, AND NAFLD” (Minneamrita Therapeutics, LLC, priority 2018, published 2020):
Structures can show the parent of a compound that is named as a salt.

Legend:
[1] = tested on: CCl4-induced liver fibrosis; experiment: Mouse model of carbon tetrachloride (CCl4) liver fibrosis; assay type: in vivo, C57Bl6/J mice
Method: Two animal models were used: Mouse model of Carbon tetrachloride (CCl4). In this model, C57Bl6/J mice (8 weeks of age; ˜25 g) received twice a week during 4 weeks 250 μL i.p. of either olive oil or CCl4 at a dose of 3.5 ml/kg diluted in olive oil. Animals were treated with 0.2 mg/kg Minnelide after 4 weeks of CCl4.
(§1) For both models, injury and fibrosis were determined by examination of histological specimens by H&E staining as well as picrosirius red staining.

[2] = tested on: DEN+CCl4-induced liver fibrosis; experiment: Mouse model of CCl4+Diethylnitrosamine (DEN)-induced liver injury; assay type: in vivo, C57Bl6/J mice; conditions: for DEN+CCl4-induced collagen deposition (Massons Trichrome and Sirius red staining): Minnelide 0.2 mg/kg, compared to the vehicle
Method: Mouse model of CCl4+Diethylnitrosamine (DEN)-induced liver injury. C57Bl6/J mice (3 weeks of age; ˜15 g) received one single dose of DEN (25 mg/kg). From 8 weeks of age; (˜25 g) they receive twice a week during 4 weeks 250 μL i.p. of either olive oil or CCl4 at a dose of 0.2 ml/kg diluted in olive oil. Animals were treated with 0.2 mg/kg Minnelide after 4 weeks of CCl4.
as §1

[3] = tested on: DIO-NASH mouse model; experiment: Diet-induced obese (DIO) mouse model of non-alcoholic steatohepatitis (NASH); assay type: in vivo, C57BL/6JRj mice; conditions: Minnelide 0.1 mg/kg PO QD, 8 weeks; compared to vehicle treated control DIO-NASH mice
Source text: To investigate the effect of 8 weeks of treatment with Minnelide alone and in combination with Elafibranor or Liraglutide in DIO-NASH mouse model, metabolic parameters, hepatic pathology and NAFLD Activity Score (NAS) including Fibrosis Stage data were collected.
Male […] mice were obtained from Janvier Labs (Le Genest Saint Isle, France). Mice had ad libitum access to tap water and either regular rodent chow (Altromin 1324, Brogaarden, Hoersholm, Denmark), or a diet high in fat (40%, containing 18% trans-fat), 40% carbohydrates (20% fructose) and 2% cholesterol (AMLN diet; D09100301, Research Diets, New Brunswick, N.J.). C57BL/6JRj mice were fed regular chow as lean chow vehicle control group or AMLN diet as DIO-NASH mice for 35 weeks prior to treatment start.
All animals included in the drug treatment experiments underwent liver biopsy for baseline characterization of hepatic parameters and stratified randomization into treatment groups. Mice are anesthetized by inhalation anesthesia using isoflurane (2-3%). […] A stratified randomization into treatment groups is performed according to liver Collagen 1a1 quantification. […]
Biochemical and histological analyses were performed as reported previously (Tølbøl, et al. World J Gastroenterol. Jan. 14, 2018; 24(2): 179-194). […] Liver homogenates were analyzed for TG and TC. […]

[4] = therapeutic intervention, CCl4 induced liver fibrosis
[5] = therapeutic intervention, DEN+CCl4 induced liver fibrosis

## CC(C)[C@]12O[C@H]1[C@@H]1O[C@]13[C@]1(O[C@H]1C[C@H]1C4=C(CC[C@@]13C)C(=O)OC4)[C@@H]2OCOP(=O)(O)O [Minnelide, 14-O-phosphonooxymethyltriptolide disodium salt]
[1]; CCl4 administration, 8 week time point
  steatosis, ballooning, and inflammatory foci (liver H&E staining): reduced
[1]; CCl4 model
  α-SMA expression (immunofluorescence staining): reduced
[1]; Minnelide 0.2 mg/kg, compared to the vehicle
  CCl4-induced collagen deposition (Massons Trichrome and Sirius red staining): inhibited
[1]; [4]
  fibrosis: reduction
  plasma biochemical markers: reduction
[2]; 8 week time point
  expression of Tnf-α, IL6, IL-1β and iNOS (inflammation associated genes): decreased
  expression of inflammasome genes (NLRP3, apoptosis-associated speck-like protein containing a CARD, caspase1, IL-1β, IL18): decreased
[2]; 12 week time point
  steatosis, ballooning, and inflammatory foci (liver H&E staining): reduced
[2]; DEN+CCl4 administration, 8 week time point
  steatosis, ballooning, and inflammatory foci (liver H&E staining): reduced
[2]; DEN+CCl4 model
  α-SMA expression (immunofluorescence staining): reduced
[2]
  DEN+CCl4-induced collagen deposition (Massons Trichrome and Sirius red staining): inhibited
[2]; 12 week time point paragraph
  DEN+CCl4-induced collagen deposition (Massons Trichrome and Sirius red staining): inhibited
[2]; [5]
  fibrosis: reduction
  plasma biochemical markers: reduction
[3]
  reduction in liver Galectin-3 (% fractional area): 18.41%
